According to ChEMBL document CHEMBL4011661, “The Fragment Network: A Chemistry Recommendation Engine Built Using a Graph Database” (J Med Chem, 2017):

Experiments:
[1] = molecular target: RAC-beta serine/threonine-protein kinase (Homo sapiens, UniProt P31751); assay: Inhibition of PKBbeta (unknown origin) in presence of [33P-gamma]ATP by scintillation counting
[2] = Inhibition of 5-FAM peptide binding to Hepatitis C virus full length NS3/4A helicase after 30 mins by FRET assay; design: species or system Hepacivirus hominis

Chain of RAC-beta serine/threonine-protein kinase (P31751 whole entry): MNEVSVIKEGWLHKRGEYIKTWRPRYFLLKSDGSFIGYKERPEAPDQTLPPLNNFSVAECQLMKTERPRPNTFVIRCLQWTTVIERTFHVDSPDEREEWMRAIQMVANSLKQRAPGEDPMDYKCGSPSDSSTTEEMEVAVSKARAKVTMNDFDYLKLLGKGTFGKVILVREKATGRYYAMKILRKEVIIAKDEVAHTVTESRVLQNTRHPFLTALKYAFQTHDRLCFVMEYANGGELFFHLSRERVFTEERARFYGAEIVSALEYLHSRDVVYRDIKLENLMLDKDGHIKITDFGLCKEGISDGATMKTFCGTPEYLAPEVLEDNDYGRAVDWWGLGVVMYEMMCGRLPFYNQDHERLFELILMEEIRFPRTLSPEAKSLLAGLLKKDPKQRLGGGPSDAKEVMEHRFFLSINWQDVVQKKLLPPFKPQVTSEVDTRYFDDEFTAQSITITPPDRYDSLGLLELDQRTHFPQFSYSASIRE

SMILES	IC50 [1] [µM]	IC50 [2] [µM]
Cc1n[nH]c(N)c1-c1ccccc1	660	
NCc1ccc(Oc2ccccc2)cc1		500
NCc1ccc(F)c(Oc2ccccc2)c1F		20
NCc1ccc(Oc2ccccc2)c(Cl)c1		41
NCc1cccc(Oc2ccccc2)c1		130
NCc1cc(F)c(Oc2ccccc2)c(F)c1		34
NCc1ccc(C(=O)c2ccccc2)cc1		180
Cc1n[nH]c(C)c1-c1ccccc1	72	
